Experimental data as given in patent publication US4018925A, “Method of arresting bacterial growth with certain selected dichloro-2,2,5,5-tetrasubstituted-3-6-piperazinediones” (Interx Research Corporation, priority 1975, dated 1977).

Tests used:
Staph. epidermidis = assay: Antibacterial activity: time required for complete sterilization (modified serial dilution method); assay type: cell-based, Staph. epidermidis ATCC 12228
From the text: (§1) The procedure to determine the antibacterial activity of 1,4-dichloro-2,2,5,5-tetramethyl-3,6-piperazinedione was based primarily on a modification of the serial dilution method of analysis. However, instead of determining the minimum inhibitory concentration parameters for the compound investigated, applicants alternatively chose to determine the bactericidal endpoint for a given concentration of the compound investigated. Consequently, applicants studies were established to determine the time required for complete sterilization of the micro-organism tested, when exposed to a given concentration of the compound investigated.
(§2) Nutrient Broth B.B.L. -- 8g/1000 ml. distilled water. The broth contains 5g. gelysate peptone and 3g. beef extract. The solution has a pH of 6.9.
(§3) Nutrient Agar -- 23g/1000 ml. distilled water. The nutrient contains 5g. gelysate peptone, 3g. beef extract and 15g. agar.
(§4) Horse Serum T.C. -- 10% horse serum solution in distilled water. The serum solution was freshly prepared and adjusted to a pH of 7 using carbon dioxide prior to its use.
(§5) A stock solution of the isolated compound (1,4,dichloro-2,2,5,5-tetramethyl-3,6-piperazinedione) was prepared using an appropriate buffered solution.
(§6) For screening in the absence of a denaturing agent (e.g., horse serum) an equal volume of distilled water and the resulting solution was subjected to the screen.
(§7) For screening in the presence of a denaturing agent, a volume of the stock solution was diluted using an equal volume of 10% horse serum. When necessary, the final solution was adjusted to the desired pH using 1N HCL and the solution was permitted to stand at room temperature for thirty minutes prior to the screening procedure.
(§8) To 5 ml. of the stock solution being evaluated, there was added 0.2 ml. of an overnight broth culture containing the particular micro-organism being investigated (see above). At time intervals of 0.5, 1, 2, 3, 4, 5, . . . minutes, a loop of this suspension was subcultured into 5 ml. of a sterile nutrient broth. All the samples were then incubated at 37° C for seven days with daily observation for evidence of bacterial growth. The time interval reported is for that sample in which no bacterial growth was observed after the incubation period.
(§9) To 5 ml. of a sterile 0.9% sodium chloride solution, there was added 0.2 ml. of an overnight broth culture containing the particular micro-organismbeing investigated. A loop of this suspension was subcultured into 5 ml. of a sterile nutrient broth and incubated at 37° C for seven days.
(§10) To 5 ml of a sterile nutrient broth, there was added a loop of the 1,4-dichloro-2,2,5,5-tetramethyl-3,6-piperazinedione solution and the solution was mixed immediately. To this solution, there was then added a loop of an overnight broth culture which was diluted 25x with a 0.9% sodium chloride solution. Incubation was carried out for seven days at a temperature of 37° C.
(§11) At the same time intervals used for subculturing the test solution into nutrient broth during the screening procedure, a loop of the test solution was also subcultured onto sterile nutrient agar plates. This technique was useful for observing the characteristic colonial morphology of each organism.
(§12) The entire screening procedure was conducted for each buffered solution using the buffered solution rather than the 1,4-dichloro-2,2,5,5-tetramethyl-3,6-piperazinedione solution in the procedure.

E. coli = assay: as above; assay type: cell-based, E. coli ATCC 10536
From the text: as §1, §2, §3, §4, §5, §6, §7, §8, §9, §10, §11, §12

Kleb. pneumoniae = assay: as above; assay type: cell-based, Kleb. pneumoniae ATCC 10031
From the text: as §1, §2, §3, §4, §5, §6, §7, §8, §9, §10, §11, §12

Pseud. aeruginosa = assay: as above; assay type: cell-based, Pseud. aeruginosa ATCC 9027
From the text: as §1, §2, §3, §4, §5, §6, §7, §8, §9, §10, §11, §12

Staph. aureus = assay: as above; assay type: cell-based, Staph. aureus ATCC 6538
From the text: as §1, §2, §3, §4, §5, §6, §7, §8, §9, §10, §11, §12

Bord. bronchiseptica = assay: as above; assay type: cell-based, Bord. bronchiseptica ATCC 4617
From the text: as §1, §2, §3, §4, §5, §6, §7, §8, §9, §10, §11, §12

[1] = Stability of N-chloramines in aqueous solution (half-life, iodometric and/or spectrophotometric); assay type: physicochemical; settings: for half-life: temperature 40
Experimental: The stability of the compound, 1,4-dichloro-2,2,5,5-tetramethyl-3,6-piperazinedione in aqueous solution was determined by (1) following the disappearance of the positive chlorine concentration of the N-Chloramine solution iodometrically and/or (2) following the decrease in the absorbance at the maximum wavelength spectrophotometrically.
The data obtained was interpreted in terms of a first order kinetic process and the half-life of said compound was reported in units of time at the condition under which they were determined.

[2] = 0.1M Na2B4O7 pH8.8, diluent H2O, 0.62 × 10^-3 M (146PPM), positive Cl 43 PPM
[3] = 0.1M NaH2PO4, diluent H2O, 0.52 × 10^-3 M, positive Cl 36 PPM
[4] = 0.1M NaH2PO4 pH7.0, diluent serum (10% horse serum), 0.52 × 10^-3 M (126PPM), positive Cl 36 PPM
[5] = 0.1M NaOAc pH 4.6, diluent H2O, 0.59 × 10^-3 M (139 PPM), positive Cl 41 PPM
[6] = 0.1M NaOAc pH 4.6, diluent serum (10% horse serum), 0.59 × 10^-3 M (139 PPM), positive Cl 41 PPM

Q: Which “Antibacterial activity time, 12228” value (Staph. epidermidis; [2]) does the source give for CC1(C)C(=O)N(Cl)C(C)(C)C(=O)N1Cl [1,4-dichloro-2,2,5,5-tetramethyl-3,6-piperazinedione] here?
A: Its value is 2 min.

Q: And the “Antibacterial activity time, 12228” value (Staph. epidermidis; [3])?
A: The value was 2 min.

Q: And the “Antibacterial activity time, 12228” value (Staph. epidermidis; [4])?
A: The value was over 15 min.

Q: And the “Antibacterial activity time, 12228” value (Staph. epidermidis; [5])?
A: Its value is 2 min.

Q: What about the “Antibacterial activity time, 12228” value (Staph. epidermidis; [6]) of the same compound?
A: The value was over 15 min.

Q: What about the “Antibacterial activity time, 10536” value (E. coli; [2]) of the same compound?
A: Its value is 1 min.

Q: And the “Antibacterial activity time, 10536” value (E. coli; [3])?
A: Its value is 1 min.

Q: And the “Antibacterial activity time, 10536” value (E. coli; [4])?
A: Its value is over 15 min.

Q: What about the “Antibacterial activity time, 10536” value (E. coli; [5]) of the same compound?
A: Its value is 1 min.

Q: And the “Antibacterial activity time, 10536” value (E. coli; [6])?
A: Its value is over 10 min.

Q: And the “Antibacterial activity time, 10031” value (Kleb. pneumoniae; [2])?
A: Its value is 4 min.

Q: What about the “Antibacterial activity time, 10031” value (Kleb. pneumoniae; [3]) of the same compound?
A: Its value is 4 min.

Q: And the “Antibacterial activity time, 10031” value (Kleb. pneumoniae; [4])?
A: Its value is over 15 min.

Q: What about the “Antibacterial activity time, 10031” value (Kleb. pneumoniae; [5]) of the same compound?
A: Its value is 2 min.

Q: What about the “Antibacterial activity time, 10031” value (Kleb. pneumoniae; [6]) of the same compound?
A: The value was over 10 min.

Q: And the “Antibacterial activity time, 9027” value (Pseud. aeruginosa; [2])?
A: Its value is 4 min.

Q: And the “Antibacterial activity time, 9027” value (Pseud. aeruginosa; [3])?
A: Its value is 5 min.

Q: What about the “Antibacterial activity time, 9027” value (Pseud. aeruginosa; [4]) of the same compound?
A: Its value is over 15 min.

Q: What about the “Antibacterial activity time, 9027” value (Pseud. aeruginosa; [5]) of the same compound?
A: The value was 3 min.

Q: And the “Antibacterial activity time, 9027” value (Pseud. aeruginosa; [6])?
A: The value was over 10 min.

Q: And the “Antibacterial activity time, 6538” value (Staph. aureus; [2])?
A: The value was 4 min.

Q: And the “Antibacterial activity time, 6538” value (Staph. aureus; [3])?
A: The value was 4 min.

Q: And the “Antibacterial activity time, 6538” value (Staph. aureus; [4])?
A: Its value is over 15 min.

Q: What about the “Antibacterial activity time, 6538” value (Staph. aureus; [5]) of the same compound?
A: The value was 3 min.

Q: What about the “Antibacterial activity time, 6538” value (Staph. aureus; [6]) of the same compound?
A: Its value is over 15 min.

Q: What about the “Antibacterial activity time, 4617” value (Bord. bronchiseptica; [2]) of the same compound?
A: The value was 4 min.

Q: And the “Antibacterial activity time, 4617” value (Bord. bronchiseptica; [3])?
A: The value was 3 min.

Q: What about the “Antibacterial activity time, 4617” value (Bord. bronchiseptica; [4]) of the same compound?
A: The value was over 15 min.

Q: What about the “Antibacterial activity time, 4617” value (Bord. bronchiseptica; [5]) of the same compound?
A: Its value is 1 min.

Q: What about the “Antibacterial activity time, 4617” value (Bord. bronchiseptica; [6]) of the same compound?
A: Its value is over 10 min.

Q: What about the half-life ([1]; 0.1M Na2B4O7 pH 9.3) of the same compound?
A: Its half-life is 38 h.

Q: And the half-life ([1]; 0.1M NaH2PO4 pH 7.0)?
A: The half-life was 332 h.

Q: What about the half-life ([1]; 0.1M NaOAc pH 4.6) of the same compound?
A: The half-life was 3070 h.

Q: And the “Stability (half-life) compared with 1,4-dichloro-2,5-piperazinedione” value ([1]; same pH (4.6, 7.0 and 9.3))?
A: The value was “far greater stability (half-life)”.

Q: With O=C1CN(Cl)C(=O)CN1Cl [1,4-dichloro-2,5-piperazinedione, reference compound] as the compound, how does the half-life ([1]; 0.1M Na2B4O7 pH 9.3) read?
A: Its half-life is 0.717 h.

Q: And the half-life ([1]; 0.1M NaH2PO4 pH 7.0)?
A: The half-life was 0.883 h.

Q: What about the half-life ([1]; 0.1M NaOAc pH 4.6) of the same compound?
A: The half-life was 15.5 h.
